In patent publication US11267802B2 (BEBETTER MED INC., priority 2015, dated 2022):

What was measured:
HCC827 = experiment: Inhibition assay on tumor cell proliferation (CellTiter-Glo), HCC827; format: cell-based; conditions: Homo sapiens; HCC827 (ex19del), 72 hours, 10% bovine serum
Experimental: (§1) By using a CellTiter-Glo luminescence cell viability test kit (Promega, # G7572), the content of adenosine triphosphate (ATP) was determined to assess the cell viability.
(§2) Human colon cancer cell line LOVO and human non-small-cell lung cancer H358 express wild-type EGFR. Human non-small-cell lung cancer cell line HCC827 carries deletion mutation in exon 19 (ex19del). Those cell lines are purchased from Shanghai Fudan IBS Cell Resource Center and American Tissue Culture Collection (ATCC).
(§3) The assay procedure is as follows. The cells in a cell culture plate were digested with a pancreatic enzyme, re-suspended in a DPBS culture medium, and had the cell density counted by Scepter automated cytometer (Millipore # PHCC00000). The cells were diluted to a solution of 44,000 cells per ml. The cell solution with adjusted density was added to the cell assay plate at 90 microliters per well. The plate was placed in an incubator with 5% CO2 at 37° C. for 24 hours of incubation, and then added with different concentrations of subject compounds. The cells were incubated for 72 hours with the compounds in presence of 10% bovine serum. The content of ATP was determined by a CellTiter-Glo® Luminescent Cell Viability Assay kit (see the manufacturer's instruction for details) to evaluate cell-growth inhibition.
(§4) Briefly, 30 μl of CellTiter-Glo® reagent was added to each well, and then shaken for 10 minutes to induce cell lysis. The fluorescent signal was detected and recorded by Fluoroskan Ascent FL (Thermo). The max signal value was obtained from the cells treated by dimethyl sulfoxide for 72 hours. The min signal value was obtained from the medium alone (the number of the cells was 0). Inhibitory rate %=(max signal value−compound signal value)/(max signal value−min signal value)×100. The data was processed by GraphPad Prism V5.0 software (GraphPad Software, San Diego, Calif.). Sigmoidal dose-response curve fitting was performed to calculate the IC50 value.

H358 = experiment: Inhibition assay on tumor cell proliferation (CellTiter-Glo), H358; format: cell-based, Human; conditions: Homo sapiens, NCI-H358; H358 (wild-type EGFR), 72 hours, 10% bovine serum
Summary of the method: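 Viability from ATP content by CellTiter-Glo luminescence; inhibition normalised to DMSO (max) and medium-only (min) wells, IC50 by sigmoidal dose-response fitting. LOVO and H358 carry wild-type EGFR; HCC827 has exon 19 deletion.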

LOVO = experiment: Inhibition assay on tumor cell proliferation (CellTiter-Glo), LOVO; format: cell-based, Human; conditions: Homo sapiens; LOVO (wild-type EGFR), 72 hours, 10% bovine serum
Experimental: as §1, §2, §3, §4

H1975 xenograft tumor [1] = experiment: Potency assay of tumor model, dose-effect relationship, 22 consecutive days; format: in vivo, Balb/C nude mice; conditions: for Tumor inhibition T/C value (%) / Weight change (%): po, qd
Experimental: (§5) Balb/C nude mice were purchased from Beijing Vital River Laboratory Animal Technology Co., Ltd., and housed in SPF animal room. The human non-small-cell lung cancer cell line H1975 in a culture dish was collected by trypsin-EDTA (0.25% trypsin, 1 mM EDTA), and then washed with a serum-free PBS solution. Lastly, the cells were implanted after diluted in a serum-free medium. Only the single cell suspension with a survival rate over 90% (Trypan blue rejection) can be used for injection. 5 million cells suspended in a 0.1 ml serum-free culture were injected into the front right flanking subcutaneous region of each mouse by using a 1 ml syringe and a 25G syringe needle, and the blood vessel was carefully avoided. The tumor size was measured in about one week after implantation. A caliper rule was used to measure the tumor size. The tumor volume was calculated by the following formula: tumor volume=(length×width^2)/2.
Further assay was performed to assess the dose-effect relationship of the inhibition of H1975 transplantation tumor growth by the compounds 51 and 91. […] These compounds were dissolved in 30% sulfobutylated beta-cyclodextrin (SBE-β-CD) and 1N HCl (pH 3-4), respectively. […]

H1975 = experiment: Inhibition assay on tumor cell proliferation (CellTiter-Glo), H1975; format: cell-based, Human; conditions: Homo sapiens, NCI-H1975; H1975 (L858R and T790M EGFR double mutation), 72 hours, 10% bovine serum
H1975 xenograft tumor [2] = experiment: Potency assay of tumor model, 16 consecutive days; format: in vivo, Balb/C nude mice; conditions: oral; for inhibition of growth of H1975 xenograft tumor (in words): 30 mg/kg qd, 16 days
Experimental: as §5
This experiment studied the inhibition of tumor growth in H1975 xenograft tumor model by the compounds 20, 50, 91, and 118. When the mean volume of H1975 tumor reached about 260 mm^3, the animals were divided into 5 oral administration groups, that is, excipient control group and groups of oral administration of compound 20, compound 50, compound 91, and compound 118, respectively (n=8/group). These compounds were dissolved in 30% sulfobutylated beta-cyclodextrin (SBE-β-CD) and 1N HCl (pH 3-4). […]

[3] = Pharmacokinetics in rats after oral administration; format: in vivo, SD rats; conditions: for AUC(0-inf) / Cmax / Tmax / half-life / AUC(0-t): male, SD, rat, 20 mg/kg, plasma; for AUC(0-t): read-out: AUC0-24
Experimental: (§6) Male SD rats weighing 250-300 g, or male beagles weighing 9-10 kg, were fasted overnight before the experiment. The object compounds were dissolved in 30% sulfobutylated beta-cyclodextrin (SBE-β-CD), and orally administrated to the rats at a dose of 20 mg/kg or to the beagles at a dose of 5 mg/kg. Blood samples were taken at 15 minutes, 30 minutes, 1 hour, 2 hours, 3 hours, 4 hours, 6 hours, 8 hours and 24 hours after administration. 0.3 ml of blood was collected at every time point, placed in a centrifuge tube containing K2-EDTA (ethylenediamine tetraacetic acid dipotassium) and centrifuged (2,000 g, 10 minutes, 4° C.) to collect plasma, which was then stored in an ultra cold storage freezer at −80° C. 50 μL of plasma sample was mixed with 5 μL of internal standard (IS), and then extracted with ethyl acetate. After vacuum drying, the residue was re-dissolved in acetonitrile. The sample was filtered and injected into LC-MS/MS for analysis.

EGFR T790M/L858R = biological target: T1, EGFR T790M/L858R (Homo sapiens, UniProt P00533, L858R/T790M); experiment: Mutant EGFR T790M/L858R activity inhibition assay (Caliper mobility shift); format: biochemical; conditions: read-out: enzyme activity inhibition (IC50) EGFR T790M/L858R
T1 construct: purchased Invitrogen PR8911A
Summary of the method: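 Compound added in 10% DMSO at 5-fold final concentration; substrate conversion read by Caliper mobility shift. Inhibition = (max−conversion)/(max−min)×100, with max from DMSO no-compound wells and min from no-enzyme wells; IC50 from fitted concentration–response curve.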

[4] = Pharmacokinetics in beagles after oral administration; format: in vivo; conditions: male, beagle, dog, 5 mg/kg, plasma
Experimental: as §6

T1 sequence (P00533 25-1210 T790M/L858R): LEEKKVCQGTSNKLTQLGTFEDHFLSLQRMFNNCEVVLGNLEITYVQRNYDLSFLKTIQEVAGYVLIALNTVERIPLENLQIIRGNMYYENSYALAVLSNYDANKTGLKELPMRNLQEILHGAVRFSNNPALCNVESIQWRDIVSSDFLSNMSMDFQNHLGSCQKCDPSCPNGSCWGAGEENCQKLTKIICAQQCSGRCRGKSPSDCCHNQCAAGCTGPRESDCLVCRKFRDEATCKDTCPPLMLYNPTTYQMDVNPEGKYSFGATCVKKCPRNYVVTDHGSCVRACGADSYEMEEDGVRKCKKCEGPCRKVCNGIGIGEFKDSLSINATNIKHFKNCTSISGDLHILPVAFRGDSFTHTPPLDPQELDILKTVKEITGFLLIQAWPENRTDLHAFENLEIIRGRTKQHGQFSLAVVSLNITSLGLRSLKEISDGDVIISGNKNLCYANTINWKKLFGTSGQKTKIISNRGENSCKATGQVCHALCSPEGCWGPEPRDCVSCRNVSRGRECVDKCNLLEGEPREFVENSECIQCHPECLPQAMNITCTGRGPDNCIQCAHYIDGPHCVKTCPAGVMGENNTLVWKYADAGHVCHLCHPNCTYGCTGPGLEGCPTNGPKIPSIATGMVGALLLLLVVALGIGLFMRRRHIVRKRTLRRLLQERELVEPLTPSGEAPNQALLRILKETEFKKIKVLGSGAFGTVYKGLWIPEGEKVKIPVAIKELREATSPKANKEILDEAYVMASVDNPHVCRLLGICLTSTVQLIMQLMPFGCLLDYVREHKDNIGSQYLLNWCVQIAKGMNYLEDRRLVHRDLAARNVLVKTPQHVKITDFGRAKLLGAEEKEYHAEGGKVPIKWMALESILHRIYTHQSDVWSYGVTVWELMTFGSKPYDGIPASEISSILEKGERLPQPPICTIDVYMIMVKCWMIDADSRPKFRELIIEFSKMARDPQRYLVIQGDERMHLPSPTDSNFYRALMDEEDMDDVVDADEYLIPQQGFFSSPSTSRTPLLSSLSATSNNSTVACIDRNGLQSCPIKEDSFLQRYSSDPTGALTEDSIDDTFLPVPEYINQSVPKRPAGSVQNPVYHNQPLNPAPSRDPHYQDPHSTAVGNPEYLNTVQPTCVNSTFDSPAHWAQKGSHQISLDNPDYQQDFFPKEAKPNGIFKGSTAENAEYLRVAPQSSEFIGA

| IC50 (HCC827) | IC50 (H358) | IC50 (LOVO) | IC50 (H1975) | IC50 (EGFR T790M/L858R) | melting point | SMILES | inhibition of growth of H1975 xenograft tumor (in words) (H1975 xenograft tumor [2]) | further results |
| --- | --- | --- | --- | --- | --- | --- | --- | --- |
| – | 100 to 1000 nM | – | < 10 nM | < 1 nM | – | C=CC(=O)Nc1cc(Nc2nccc(-n3ccc4nc(OC)ccc43)n2)c(OC)cc1N(C)CCN(C)C [Compound 20, N-(2-((2-(dimethylamino)ethyl)(methyl)amino)-4-methoxy-5-((4-(5-methoxy-1H-pyrrolo[3,2-b]pyridin-1-yl)pyrimidin-2-yl)amino)phenyl)acrylamide] | tumor regression | absorption / blood exposure after oral administration (in words) [3]: well absorbed, with high blood exposure; AUC(0-inf) [3]: 1450 ng·h/mL; Cmax [3]: 350 ng/mL; Tmax [3]: 1.67 h; half-life [3]: 3.7 h; AUC(0-t) [3]: 1440 ng·h/mL |
| < 10 nM | 100 to 1000 nM | > 1000 nM | < 10 nM | < 1 nM | 67 to 68 °C | C=CC(=O)Nc1cc(Nc2nccc(-n3ccc4cc(CO)ccc43)n2)c(OC)cc1N(C)CCN(C)C [Compound 39, N-(2-((2-(dimethylamino)ethyl)(methyl)amino)-5-((4-(5-(hydroxymethyl)-1H-indol-1-yl)pyrimidin-2-yl)amino)-4-methoxyphenyl)acrylamide] | – | – |
| – | 100 to 1000 nM | – | < 10 nM | < 1 nM | 208 to 210 °C | C=CC(=O)Nc1cc(Nc2nccc(-n3c(=O)n(C)c4cc(F)ccc43)n2)c(OC)cc1N(C)CCN(C)C [Compound 50, N-(2-((2-(dimethylamino)ethyl)(methyl)amino)-5-((4-(5-fluoro-3-methyl-2-oxo-2,3-dihydro-1H-benzo[d]imidazol-1-yl)pyrimidin-2-yl)amino)-4-methoxyphenyl)acrylamide] | tumor regression | T/C value (H1975 xenograft tumor [2]; 30 mg/kg qd as printed, 16 days after administration): −97%; AUC(0-inf) [4]: 1470 ng·h/mL; Cmax [4]: 428 ng/mL; Tmax [4]: 1 h; half-life [4]: 1.45 h; AUC(0-t) ([4]; read-out: AUC0-24): 1420 ng·h/mL; Tumor inhibition T/C value (%) (H1975 xenograft tumor [1]; 10 mg/kg, 22 consecutive days): −65%; Weight change (%) (H1975 xenograft tumor [1]; 10 mg/kg, 22 consecutive days): 0.0%; Tumor inhibition T/C value (%) (H1975 xenograft tumor [1]; 20 mg/kg, 22 consecutive days): −95%; Weight change (%) (H1975 xenograft tumor [1]; 20 mg/kg, 22 consecutive days): −2.0%; Tumor inhibition T/C value (%) (H1975 xenograft tumor [1]; 40 mg/kg, 22 consecutive days): −100%; Weight change (%) (H1975 xenograft tumor [1]; 40 mg/kg, 22 consecutive days): −4.4%; tumor outcome (in words) (H1975 xenograft tumor [1]; high dose (40 mg/kg), 22 consecutive days): the tumor disappeared completely; dose dependence of inhibition of H1975 xenograft tumor growth (in words) (H1975 xenograft tumor [1]; oral, 10, 20 and 40 mg/kg): dose dependently inhibited; absorption / blood exposure after oral administration (in words) [3]: well absorbed, with high blood exposure; AUC(0-inf) [3]: 598 ng·h/mL; Cmax [3]: 173 ng/mL; Tmax [3]: 1 h; half-life [3]: 3.1 h; AUC(0-t) [3]: 561 ng·h/mL |
| – | > 1000 nM | > 1000 nM | 50 to 100 nM | 1 to 10 nM | 189.7 to 191.8 °C | CC#CC(=O)Nc1cc(Nc2nccc(-n3ccc4ccccc43)n2)c(OC)cc1N(C)CCN(C)C [Compound 73, N-(5-((4-(1H-indol-1-yl)pyrimidin-2-yl)amino)-2-((2-(dimethylamino)ethyl)(methyl)amino)-4-methoxyphenyl)but-2-ynamide] | – | – |
| – | > 1000 nM | > 1000 nM | < 10 nM | 1 to 10 nM | 151 to 153 °C | C=CC(=O)Nc1cc(Nc2nccc(-n3ccc4ccccc43)n2)c(OC)cc1N(C)CCN1CCCC1 [Compound 80, N-(5-(4-(1H-indol-1-yl)pyrimidin-2-ylamino)-4-methoxy-2-(methyl(2-(pyrrolidin-1-yl)ethyl)amino)phenyl)acrylamide] | – | – |

More lines, now with the values behind:

| SMILES | IC50 (HCC827) | IC50 (H358) | IC50 (LOVO) | IC50 (H1975) | IC50 (EGFR T790M/L858R) | melting point | inhibition of growth of H1975 xenograft tumor (in words) (H1975 xenograft tumor [2]) | further results |
| --- | --- | --- | --- | --- | --- | --- | --- | --- |
| C=CC(=O)Nc1cc(Nc2nccc(-c3cn(C)c4ccccc34)n2)c(OC)cc1N(C)CCN(C)C [AZD9291, Osimertinib, reference compound] | < 10 nM | 100 to 1000 nM | > 1000 nM | < 10 nM | – | – | – | Tumor inhibition T/C value (%) (H1975 xenograft tumor [1]; 25 mg/kg, 22 consecutive days): −100%; Weight change (%) (H1975 xenograft tumor [1]; 25 mg/kg, 22 consecutive days): −7.2% |
| C=CC(=O)Nc1cccc(Nc2nc(Nc3ccc(N4CCN(C(C)=O)CC4)cc3OC)ncc2C(F)(F)F)c1 [CO-1686, Rociletinib, reference compound] | 100 to 1000 nM | 100 to 1000 nM | > 1000 nM | 10 to 50 nM | – | – | – | – |
| C=CC(=O)Nc1cc(Nc2nccc(-n3ccc4ccccc43)n2)c(OC)cc1N1CC[C@H](N(C)C)C1 [Compound 78, (S)—N-(5-((4-(1H-indol-1-yl)pyrimidin-2-yl)amino)-2-(3-(dimethylamino)pyrrolidin-1-yl)-4-methoxyphenyl)acrylamide] | – | > 1000 nM | > 1000 nM | 10 to 50 nM | 1 to 10 nM | 161 to 162 °C | – | – |
| C=CC(=O)Nc1cc(Nc2nccc(-n3ccc4ccccc43)n2)c(OC)cc1N1CC[C@@H](N(C)C)C1 [Compound 79, (R)—N-(5-((4-(1H-indol-1-yl)pyrimidin-2-yl)amino)-2-(3-(dimethylamino)pyrrolidin-1-yl)-4-methoxyphenyl)acrylamide] | – | > 1000 nM | > 1000 nM | 50 to 100 nM | < 1 nM | 161 to 162 °C | – | – |
| C=CC(=O)Nc1cc(Nc2nccc(-n3c(=O)n(C)c4ccccc43)n2)c(C)cc1N(C)CCN(C)C [Compound 118, N-(2-((2-(dimethylamino)ethyl) (methyl)amino)-4-methyl-5-((4-(3-methyl-2-oxo-2,3-dihydro-1H-benzo[d]imidazol-1-yl)pyrimidin-2-yl)amino)phenyl)acrylamide] | – | 100 to 1000 nM | – | < 10 nM | < 1 nM | 208 to 210 °C | tumor regression | – |
